# In paper PMC8686763, “Pre-Steady-State Kinetics of the SARS-CoV-2 Main Protease as a Powerful Tool for Antiviral Drug Discovery” (Frontiers in Pharmacology, 2021):
# Where two headings read alike, the source gives them in different places.
# How the values were obtained:
# SARS-CoV-2 M^pro (WT) = SARS-CoV-2 M^pro (WT) (Severe acute respiratory syndrome coronavirus 2, UniProt P0DTD1); test: biochemical; type: binding; conditions: for ΔTm at 50 µM: read-out: ΔTm
# WT M^pro = WT M^pro (Severe acute respiratory syndrome coronavirus 2, UniProt P0DTD1); type: binding
# [1] = 5 μM M^pro, 50 μM inhibitor, vs DMSO control
Compound,Tm (SARS-CoV-2 M^pro (WT)),change of protein Tm upon binding (in words) (SARS-CoV-2 M^pro (WT)),ΔTm at 50 µM (SARS-CoV-2 M^pro (WT); [1]),ΔTm at 50 µM (SARS-CoV-2 M^pro (WT)),K 2 (= k 2/k −2) (WT M^pro),k 2 (WT M^pro),k -2 (WT M^pro),k chem (WT M^pro),k 1 (WT M^pro; 25 °C),k -1 (WT M^pro; 25 °C),"Tm (SARS-CoV-2 M^pro (WT); 5 μM M^pro, 50 μM inhibitor, DMSO control 56.25)"
CC(C)(C)NC(=O)N[C@H](C(=O)N1C[C@H]2[C@@H]([C@H]1C(=O)NC(CC1CCC1)C(=O)C(N)=O)C2(C)C)C(C)(C)C (stereo partly drawn) [Boceprevir],62.00 °C,caused changes of protein Tm,5.75 °C,–,–,–,–,–,–,–,–
COc1cccc2[nH]c(C(=O)N[C@@H](CC(C)C)C(=O)N[C@@H](C[C@@H]3CCNC3=O)C(=O)CO)cc12 [PF-00835231],70.25 °C,caused changes of protein Tm,–,~14 °C,0.37 ± 0.07,0.90 ± 0.18 s⁻¹,2.4 ± 0.1 s⁻¹,0.17 ± 0.07 s⁻¹,(0.35 ± 0.09)×10^6 M^−1×s^−1,12.4 ± 0.6 s⁻¹,–
CCC[C@H](NC(=O)[C@@H]1[C@H]2CCC[C@H]2CN1C(=O)[C@@H](NC(=O)[C@@H](NC(=O)c1cnccn1)C1CCCCC1)C(C)(C)C)C(=O)C(=O)NC1CC1 [Telaprevir],–,did not result in Tm changes,0 °C,–,–,–,–,–,–,–,56.25 °C
